# Entries after “also recorded” stand apart in the source; their conditions may differ.
# Test system: β-oxidation
# Assay: PHA co-polymer composition of lithotrophic C. necator strains with acrylic acid (GCMS of 3-hydroxy acid methyl esters)
# Format: cell-based
# Method: PHA extraction and analysis: After 48 hr of growth in the second media exchange, 100 ml lithotrophic PHA-producing C. necator cultures were induced with 0.3% arabinose where indicated along with 240 ug/mL acrylic acid where indicated and grown for 5 days at 30° C. Cultures were harvest, pelleted, and lyophilized overnight. Freeze dried pellets were weighed for dry cell weight. PHA was purified with 0.2 ml/mg DCW of 13% NaClO^− for 4 hr at 30° C., washed twice with dH2O, washed once with acetone, then dried at 25° C. overnight. 1:1 methanol and HCl in dioxane to a final volume of 3 ml (1% pentadecanoate as internal standard), the tubes were sealed with crimp top and incubated in oil bath at 90° C. for 20 hr. Tubes were placed on ice, once cooled, 2 ml of chloroform was added and vigorously vortexed, 3 ml of dH2O was added followed by extensive vortexing, the organic phase was separated by centrifugation (10 min, 4,000×g), organic phase removed and stored at −20° C. until GCMS analysis.
# GCMS analysis: PHA samples were analyzed by GC-MS 5975/7890 (Agilent Technologies™) on a DB-35 ms column. Samples were heated on a gradient from 40 to 250° C. at 5° C./min. The co-polymer composition was determined with the mass spectra of the 3-hydroxy alkanoic acid methyl esters at m/z=103 and NIST Mass Spectral Library™.
smiles,measurement,setting,value
C=CC(=O)O [acrylic acid],effect on PHA composition,"PAS826 (wildtype phaC) and PAS827 (ΔphaC), 240 μg/mL acrylic acid with induction",no effect; also recorded: not strongly affected
same,proportion of 3HO and 3HD,"PAS828, 240 μg/mL acrylic acid",decreased to undetectable levels
same,contribution to PHA composition,"PAS828 / PAS829 (UcFatB2, phaC1Pa), 240 μg/mL acrylic acid",did not contribute significantly
same,copolymer composition compared to no-acrylic acid condition,"PAS829, 240 μg/mL acrylic acid",slightly enriched for longer-chain fatty acids
same,mcl-3HA proportion of PHA,"PAS830 (native phaC, chim4, phaC1Ps), with acrylic acid, mean",72.6%
same,3HO proportion of PHA,"PAS830, with acrylic acid, mean",54.6%
same,enrichment of mcl-3HAs,"PAS831, after the addition of acrylic acid",minor enrichment
same,3HD proportion of PHA,"PAS831, with acrylic acid, n=2",7.1%
same,3HDD proportion of PHA,"PAS831, with acrylic acid, n=2",2.6%
same,3HO proportion of PHA,"PAS831, with acrylic acid, n=2",61.4%
same,3HTD proportion of PHA,"PAS831, with acrylic acid, n=2",1.2%
same,mcl-3HA proportion of PHA,"PAS832 (native phaC, UcFatB2, phaC2Pa), with acrylic acid, n=3",59.4%
same,3HDD proportion of PHA,"PAS832, with acrylic acid, n=3",36.3%
same,3HDD proportion of PHA,"PAS833 (ΔphaC, UcFatB2, phaC2Pa), with acrylic acid",60.3%

# Source: patent publication US20230126375A1, “ENGINEERED BACTERIA AND METHODS OF PRODUCING SUSTAINABLE BIOMOLECULES” (PRESIDENT AND FELLOWS OF HARVARD COLLEGE, priority 2020, published 2023)
